Measured values as given in ChEMBL document CHEMBL1156314, “Synthesis and structure-activity relationships of antimalarial 4-oxo-3-carboxyl quinolones” (Bioorg Med Chem, 2010).

Experiments:
[1] = in vitro; settings: PAMPA, pH 7.4
[2] = pampa, pH 7.4, 10 µM
[3] = Membrane permeability at 10 uM at pH 4 by PAMPA method; format: ADME; settings: read-out: permeability

SMILES	permeability [2]	Papp at 10 µM [3]	other results
CCOC(=O)c1c(-c2cccc([N+](=O)[O-])c2)[nH]c2cccc(OC)c2c1=O	–	–	permeability at 10 µM [1]: 110 ×10⁻⁶ cm/s
CCOC(=O)c1cc2c(OC)cccc2nc1-c1ccc2c(c1)OCO2	–	500 ×10⁻⁶ cm/s	–
CCOC(=O)c1c(-c2ccc3c(c2)OCO3)nc2cc(OC)ccc2c1Cl	–	500 ×10⁻⁶ cm/s	–

Further lines, with some results ahead:

permeability [2]	Papp at 10 µM [3]	SMILES	other results
1.2 10^-6 cm/s	–	CNC(=C[N+](=O)[O-])NCCSCc1ccc(CN(C)C)o1.Cl [RANITIDINE HYDROCHLORIDE]	–
145 10^-6 cm/s	–	NC(=O)N1c2ccccc2C=Cc2ccccc21 [CARBAMAZEPINE]	–
